Reference: PMC7115697 (Peptides, 2016)

Tests used:
[1] = system: lentiviruses coding EGFP and coated with FuG-C hybrid envelope protein; assay type: cell-based
[2] = system: human erythrocytes; details: pH 7.4
[3] = system: equine erythrocytes; details: pH 7.4
[4] = system: VLPs coated with Marburg virus envelope protein; assay type: biochemical, Ebola virus
[5] = system: VLPs coated with VSV envelope protein; assay type: biochemical, Ebola virus

Row | Substance | amount of produced GFP (GFP fluorescence of cell lysates) [1] | inhibitory effect on lentivirus infectivity [1] | hemolytic activity [2] | hemolytic activity [3] | virolytic activity on enzymatic VLPs [4] | concentrations that effectively block the virus entry [1] | virolytic activity on enzymatic VLPs [5]
1 | WEAKLAKALAKALAKHLAKALAKALKACEA | might slightly increase the amount of produced GFP but the increase is not significant | substantial antiviral effect | moderate hemolytic activity | moderate hemolytic activity |  |  | 
2 | Hecate |  | substantial antiviral effect | moderately lyse human erythrocytes | virtually no effect on equine RBCs |  |  | 
3 | GALA |  | remarkably potent inhibitor |  |  | moderate virolytic activity | above 5 μM | moderate virolytic activity
